Reference: patent US8569297B2, “1-benzyl-3-hydroxymethylindazole derivatives and use thereof in the treatment of diseases based on the expression of MCP-1 and CX3CR1” (Aziende Chimiche Riunite Angelini Francesco A.C.R.A.F. …, priority 2008, dated 2013)

How the values were obtained:
[1] = test system: MCP-1; assay: Analysis of the gene expression of MCP-1 in a human monocyte line (real-time RT-PCR); type: cell-based; details: 150 μM (maximum soluble concentration), 1 hour pre-incubation; MonoMac6 cells stimulated with LPS 100 ng/ml for 4 hours
Method: (§1) The capacity of compound 1 to inhibit the expression of MCP-1 by lipopolysaccharide (LPS)-stimulated MonoMac6 cells was evaluated. The cells were placed in 96-well plates at a concentration of 50 000 cells/well. The compound was tested at the maximum soluble concentration given in Table 1 (in the range 30-300 μM) and incubated for 1 hour. The cells were then stimulated with LPS (100 ng/ml) for 4 hours.
(§2) The total RNA was extracted from the cell pellet using the RNeasy mini kit (Qiagen), reverse-transcribed with the TaqMan Reverse transcription reagents synthesis kit (Applied Biosystems) and the cDNA obtained was used for the real-time PCR reaction. The amplification was obtained in 96-well plates using the ABI Prism 7000 sequence detection system (Applied Biosystems), by applying the following temperature profile: 50° C. for 2 minutes, 95° C. for 10 minutes and 45 cycles at 95° C. for 15 seconds and 60° C. for 1 minute. For the amplification, a set of primers and probe specific for human MCP-1 was used (Applied Biosystems, RefSeq NM_002982.3). […] Once the reaction had taken place, the fluorescence data were analysed using the ABI Prism 7000 SDS software, by calculating the threshold cycle (Ct) for each sample and subsequently performing a relative quantification via the ΔΔCt method.
The results obtained, expressed as a percentage of inhibition, are collated in Table 1 below.

[2] = test system: MCP-1; assay: Measurement of the production of MCP-1 in a human monocyte line (ELISA); type: cell-based; details: MONO-MAC-6, 150 μM (maximum soluble concentration), 1 hour pre-incubation, MonoMac6 cells stimulated with LPS 100 ng/ml for 20 hours, supernatant ELISA, read-out: % inhibition of LPS-induced MCP-1 production (produced protein)
Method: The capacity of the compounds 1 and 2 to inhibit the expression of the protein MCP-1 by lipopolysaccharide (LPS)-stimulated MonoMac6 cells was evaluated. The cells were placed in 96-well plates at a concentration of 50 000 cells/well. The compounds were tested at the maximum soluble concentration given in Table 2 (in the range 30-300 μM) and incubated for 1 hour. The cells were then stimulated with LPS (100 ng/ml) for 20 hours.
The amount of MCP-1 produced was measured in the supernatants, suitably diluted with buffer, by means of an immunoenzymatic test (ELISA) using a commercial kit (ELISA MCP-1/JE, R&D Systems).
The results obtained, expressed as a percentage of inhibition, are collated in Table 2 below.

[3] = test system: CX3CR1; assay: Analysis of the gene expression of CX3CR1 in a human monocyte line (real-time RT-PCR); type: cell-based; details: 150 μM (maximum soluble concentration), 1 hour pre-incubation; MonoMac6 cells stimulated with LPS 100 ng/ml for 20 hours
Method: as §1, with “of CX3CR1” for “of MCP-1”, “Table 3” for “Table 1”, “for 20” for “for 4”
as §2, with “CX3CR1” for “MCP-1”, “NM_001337.3).” for “NM_002982.3).”
The results obtained, expressed as a percentage of inhibition, are collated in Table 3 below.

In the case of NCC(O)c1nn(Cc2ccccc2)c2ccccc12 (stereo not shown) [Compound 1, 2-amino-1-(1-benzyl-1H-indazol-3-yl)ethanol], the “% inhibition of LPS-induced expression of MCP-1 (specific mRNA)” value [1] is reported as 64%, the inhibition at 150 µM [2] is reported as 73% and the “% inhibition of LPS-induced expression of CX3CR1 (specific mRNA)” value [3] is reported as 96%. The melting point was 126 °C (dec.).

In the case of CCNCC(O)c1nn(Cc2ccccc2)c2ccccc12 (stereo not shown) [Compound 2, 1-(1-benzyl-1H-indazol-3-yl)-2-(ethylamino)ethanol], the “% inhibition of LPS-induced expression of MCP-1 (specific mRNA)” value [1] is reported as 53%, the inhibition at 150 µM [2] is reported as 67% and the “% inhibition of LPS-induced expression of CX3CR1 (specific mRNA)” value [3] is reported as 85%.
